pEC50, pIC50: −log10 of the molar value.
How the values were obtained:
SARS-CoV-2 [1] = assay: Antiviral activity against SARS-CoV-2 infected in african green monkey Vero E6 cells pretreated for 1 hrs followed by viral infection for 2 hrs and replaced with fresh medium for 48 hrs post infection by qRT-PCR; assay type: functional, organism-based; conditions: Severe acute respiratory syndrome coronavirus 2, Vero C1008
SARS-CoV-2 [2] = assay: Antiviral activity against SARS-CoV-2 omicron variant infected in human Calu-3 cells of organoid assessed as intracellular viral RNA level measured after 48 hrs by qRT-PCR analysis; assay type: functional, organism-based; conditions: Severe acute respiratory syndrome coronavirus 2, Calu-3, 48 h

| Compound | pEC50 (SARS-CoV-2 [1]) | pIC50 (SARS-CoV-2 [2]) |
| --- | --- | --- |
| CCC(CC)COC(=O)[C@H](C)N[P@](=O)(OC[C@H]1O[C@@](C#N)(c2ccc3c(N)ncnn23)[C@H](O)[C@@H]1O)Oc1ccccc1 | 6.11 |  |
| CC(C)C(=O)OC[C@H]1O[C@@H](n2cc/c(=N\O)[nH]c2=O)[C@H](O)[C@@H]1O [MOLNUPIRAVIR] |  | 6.12 |

From ChEMBL document CHEMBL5360552, “Potential RNA-dependent RNA polymerase (RdRp) inhibitors as prospective drug candidates for SARS-CoV-2” (Eur J Med Chem, 2023)
